Results taken from DBAASP.
Converted amounts (≈) assume the structure as drawn. One block for each compound: values may come before it.

Columns and labels:
Experiment in all cases: ≥ marks a high value that may be exact or a test limit, other limits are often not marked, values filed in µg/mL are converted to µM
[1] = tested on: Staphylococcus aureus ATCC 6538
[2] = tested on: Pseudomonas aeruginosa ATCC 9027
Bacillus cereus = tested on: Bacillus cereus
Escherichia coli = tested on: Escherichia coli
[3] = tested on: Staphylococcus aureus ATCC 25923
[4] = tested on: Candida albicans ATCC 2002
Escherichia coli UB1005 = tested on: Escherichia coli UB1005
[5] = tested on: Pseudomonas aeruginosa PAO1
[6] = tested on: Escherichia coli ATCC 25922
[7] = tested on: Klebsiella pneumoniae ATCC 700603
[8] = tested on: Candida albicans ATCC 10231
[9] = tested on: Staphylococcus aureus ATCC 29213
[10] = tested on: Pseudomonas aeruginosa ATCC 27853
[11] = tested on: Enterococcus faecalis ATCC 29212

SMILES: CC(C)C[C@H](NC(=O)[C@H](C)NC(=O)[C@H](CCCCN)NC(=O)[C@H](CCCCN)NC(=O)[C@H](CC(C)C)NC(=O)[C@H](C)NC(=O)[C@H](CCCCN)NC(=O)[C@H](Cc1ccccc1)NC(=O)[C@H](CC(C)C)NC(=O)[C@H](CC(C)C)NC(=O)[C@H](CCCCN)NC(=O)[C@H](C)NC(=O)[C@@H](N)Cc1ccccc1)C(N)=O [FAKLLFKALKKAL]
MIC [1]: 33.5 µM (≈ 50 µg/mL)
MIC [2]: 134 µM (≈ 200 µg/mL)

MIC (Bacillus cereus): ≥ 131 µM
MIC (Escherichia coli): > 131 µM
SMILES: CC[C@H](C)[C@H](NC(=O)[C@@H]1CCCN1C(=O)[C@H](CO)NC(=O)[C@@H](NC(=O)[C@@H](NC(=O)[C@@H](NC(=O)[C@H](C)NC(=O)[C@H](CC(C)C)NC(=O)[C@H](CCCCN)NC(=O)[C@H](CO)NC(=O)[C@H](C)NC(=O)[C@@H](NC(=O)[C@H](CCCCN)NC(=O)[C@@H](NC(=O)[C@@H](NC(=O)[C@@H](N)CO)[C@@H](C)O)C(C)C)C(C)C)C(C)C)C(C)C)C(C)C)C(=O)N[C@@H](CO)C(=O)N[C@@H](CCCCN)C(=O)NCC(=O)N[C@@H](CO)C(=O)O [STVKVASKLAVVVSPISKGS]

MIC [3]: 43.7 µM (≈ 100 µg/mL)
MIC [4]: 16.4 µM (≈ 37.5 µg/mL)
SMILES: CC[C@H](C)[C@H](NC(=O)[C@H](C)NC(=O)[C@H](CCCN=C(N)N)NC(=O)[C@H](Cc1ccc(O)cc1)NC(=O)[C@H](CC(C)C)NC(=O)[C@H](CC(N)=O)NC(=O)[C@H](Cc1ccc(O)cc1)NC(=O)CNC(=O)[C@H](C)NC(=O)[C@@H](NC(=O)[C@@H](NC(=O)[C@@H](NC(=O)[C@H](CCCN=C(N)N)NC(=O)[C@@H](NC(=O)[C@@H](NC(=O)[C@@H](NC(=O)[C@@H]1CCCN1)C(C)C)C(C)C)[C@@H](C)CC)[C@@H](C)O)C(C)C)C(C)C)C(=O)N[C@@H](CCCCN)C(=O)N[C@@H](CCCCN)C(=O)N[C@@H](CCCCN)C(=O)O [PVVIRTVVAGYNLYRAIKKK]

SMILES: CC(C)C[C@H](NC(=O)[C@H](C)NC(=O)[C@H](CC(C)C)NC(=O)[C@H](CCCCN)NC(=O)[C@H](C)NC(=O)[C@H](CC(C)C)NC(=O)[C@H](CCCCN)NC(=O)[C@H](CCCCN)NC(=O)[C@H](C)NC(=O)[C@H](CC(C)C)NC(=O)[C@H](CCCCN)NC(=O)[C@H](CCCCN)NC(=O)[C@H](C)NC(=O)[C@@H](N)Cc1ccccc1)C(N)=O [FAKKLAKKLAKLAL]
MIC [1]: 3.24 µM (≈ 5 µg/mL)
MIC [2]: 64.8 µM (≈ 99.9 µg/mL)

MIC [3]: 3.37 µM (≈ 8 µg/mL)
MIC (Escherichia coli UB1005): 2.11 µM (≈ 5 µg/mL)
MIC [5]: 19.1 µM (≈ 45.2 µg/mL)
SMILES: CC[C@H](C)[C@H](NC(=O)[C@H](CCCN=C(N)N)NC(=O)[C@H](CCCN=C(N)N)NC(=O)[C@@H]1CCCN1C(=O)[C@@H]1CCCN1C(=O)[C@H](CCCN=C(N)N)NC(=O)[C@@H]1CCCN1C(=O)[C@H](CCCN=C(N)N)NC(=O)[C@@H]1CCCN1C(=O)[C@H](CC(C)C)NC(=O)[C@H](Cc1ccc(O)cc1)NC(=O)[C@@H]1CCCN1C(=O)[C@@H]1CCCN1C(=O)[C@H](CCCCN)NC(=O)[C@@H]1CCCN1C(=O)[C@@H](N)C(C)C)C(=O)N[C@@H](Cc1ccc(O)cc1)C(=O)N[C@@H](CC(N)=O)C(=O)N[C@@H](CCCN=C(N)N)C(N)=O [VPKPPYLPRPRPPRRIYNR]

MIC (Bacillus cereus): ≥ 124 µM
MIC (Escherichia coli): > 124 µM
SMILES: CSCC[C@H](NC(=O)[C@H](CO)NC(=O)[C@H](Cc1ccccc1)NC(=O)[C@@H](NC(=O)[C@H](C)NC(=O)[C@@H]1CCCN1C(=O)[C@H](Cc1ccccc1)NC(=O)[C@@H](NC(=O)[C@H](CCCCN)NC(=O)[C@H](CO)NC(=O)[C@H](C)NC(=O)[C@H](CC(C)C)NC(=O)[C@H](CCCCN)NC(=O)CNC(=O)[C@@H](NC(=O)[C@H](C)NC(=O)[C@@H](N)CO)C(C)C)C(C)C)C(C)C)C(=O)N[C@H](C(=O)N[C@H](C(=O)N[C@@H](CCCCN)C(=O)O)[C@@H](C)O)C(C)C [SAVGKLASKVFPAVFSMVTK]

MIC (Bacillus cereus): ≥ 106 µM
MIC (Escherichia coli): > 106 µM
SMILES: CC[C@H](C)[C@H](NC(=O)[C@H](CCC(=O)O)NC(=O)[C@H](CCC(=O)O)NC(=O)[C@H](CO)NC(=O)[C@H](CC(C)C)NC(=O)[C@H](CC(C)C)NC(=O)[C@H](Cc1c[nH]c2ccccc12)NC(=O)[C@H](CC(N)=O)NC(=O)[C@H](CCC(=O)O)NC(=O)CNC(=O)[C@H](CC(N)=O)NC(=O)[C@H](CCCCN)NC(=O)[C@H](CC(C)C)NC(=O)[C@H](CO)NC(=O)[C@H](Cc1ccc(O)cc1)NC(=O)[C@@H]1CCCN1)C(=O)N[C@H](C(=O)N[C@@H](CCCN=C(N)N)C(=O)N[C@@H](Cc1ccc(O)cc1)C(=O)N1CCC[C@H]1C(=O)O)[C@@H](C)CC [PYSLKNGENWLLSEEIIRYP]

MIC [6]: 13.1 µM (≈ 32 µg/mL)
MIC [7]: 13.1 µM (≈ 32 µg/mL)
SMILES: CC[C@H](C)[C@H](NC(=O)[C@@H](NC(=O)[C@@H]1CCCN1C(=O)[C@@H](NC(=O)[C@@H]1CCCN1C(=O)[C@H](CCCCN)NC(=O)[C@H](CCCCN)NC(=O)[C@H](CO)NC(=O)CN)C(C)C)[C@@H](C)CC)C(=O)N[C@@H](Cc1ccc(O)cc1)C(=O)N[C@H]1CSSC[C@@H](C(=O)N[C@@H](CCC(N)=O)C(=O)N[C@@H](CCCN=C(N)N)C(=O)N[C@@H](CCSC)C(=O)O)NC(=O)[C@H](CCCCN)NC(=O)CNC(=O)[C@H](CO)NC(=O)[C@H](CCCN=C(N)N)NC(=O)[C@H](CCCN=C(N)N)NC(=O)[C@H](CCC(N)=O)NC1=O [GSKKPVPIIYCQRRSGKCQRM]

SMILES: CC(C)C[C@H](NC(=O)[C@H](C)NC(=O)[C@H](CCCCN)NC(=O)[C@H](C)NC(=O)[C@H](CC(C)C)NC(=O)[C@H](CCCCN)NC(=O)[C@H](CCCCN)NC(=O)[C@H](C)NC(=O)[C@H](CC(C)C)NC(=O)[C@H](CCCCN)NC(=O)[C@H](C)NC(=O)[C@H](CC(C)C)NC(=O)[C@H](CCCCN)NC(=O)[C@H](CCCCN)NC(=O)[C@H](C)NC(=O)[C@@H](N)Cc1ccccc1)C(N)=O [FAKKLAKLAKKLAKAL]
MIC [1]: > 115 µM
MIC [2]: 115 µM (≈ 200 µg/mL)

SMILES: CC(C)C[C@H](NC(=O)[C@H](CCCCN)NC(=O)[C@H](C)NC(=O)[C@H](CC(C)C)NC(=O)[C@H](CC(C)C)NC(=O)[C@H](CCCCN)NC(=O)[C@H](C)NC(=O)[C@@H](N)Cc1ccccc1)C(=O)N[C@@H](C)C(=O)N[C@@H](CCCCN)C(=O)N[C@@H](C)C(=O)N[C@@H](CCCCN)C(=O)N[C@@H](C)C(N)=O [FAKLLAKLAKAKA]
MIC [1]: 72.8 µM (≈ 99.9 µg/mL)
MIC [2]: 146 µM (≈ 200 µg/mL)

MIC [8]: 27.9 µM (≈ 62.4 µg/mL)
MIC [9]: 18.1 µM (≈ 40.6 µg/mL)
MIC [10]: 6.31 µM (≈ 14.1 µg/mL)
SMILES: CC(C)C[C@H](NC(=O)[C@H](CCCCN)NC(=O)[C@H](CCCCN)NC(=O)[C@H](CC(C)C)NC(=O)[C@H](CC(C)C)NC(=O)[C@H](CCCCN)NC(=O)[C@H](CCCCN)NC(=O)[C@H](CC(C)C)NC(=O)[C@H](CCCCN)NC(=O)[C@H](CCCCN)NC(=O)[C@H](CC(C)C)NC(=O)[C@H](CC(C)C)NC(=O)[C@H](CCCCN)NC(=O)[C@H](CCCCN)NC(=O)[C@H](CC(C)C)NC(=O)[C@H](CC(C)C)NC(=O)[C@H](CCCCN)NC(=O)[C@@H](N)Cc1ccc(O)cc1)C(N)=O [YKLLKKLLKKLKKLLKKL]

SMILES: CC(C)C[C@H](NC(=O)[C@H](CCCCN)NC(=O)[C@H](CC(C)C)NC(=O)[C@H](CCCCN)NC(=O)[C@H](CC(C)C)NC(=O)[C@H](C)NC(=O)[C@H](CCCCN)NC(=O)[C@H](C)NC(=O)[C@H](CC(C)C)NC(=O)[C@H](CC(C)C)NC(=O)[C@H](CCCCN)NC(=O)[C@H](C)NC(=O)[C@@H](N)Cc1ccccc1)C(N)=O [FAKLLAKALKLKL]
MIC [1]: 6.86 µM (≈ 9.99 µg/mL)
MIC [2]: 17.2 µM (≈ 25 µg/mL)

MIC [3]: 0.198 µM (≈ 0.5 µg/mL)
MIC (Escherichia coli UB1005): 0.516 µM (≈ 1.3 µg/mL)
MIC [5]: 2.24 µM (≈ 5.65 µg/mL)
SMILES: CC[C@H](C)[C@H](NC(=O)[C@H](CCCN=C(N)N)NC(=O)[C@H](CCCN=C(N)N)NC(=O)[C@@H]1CCCN1C(=O)[C@H](Cc1c[nH]c2ccccc12)NC(=O)[C@H](CCCN=C(N)N)NC(=O)[C@@H]1CCCN1C(=O)[C@H](CCCN=C(N)N)NC(=O)[C@@H]1CCCN1C(=O)[C@H](CC(C)C)NC(=O)[C@H](Cc1ccc(O)cc1)NC(=O)[C@@H]1CCCN1C(=O)[C@@H]1CCCN1C(=O)[C@H](CCCCN)NC(=O)[C@H](CCCN=C(N)N)NC(=O)[C@@H](N)C(C)C)C(=O)N[C@@H](Cc1ccc(O)cc1)C(=O)N[C@@H](CC(N)=O)C(=O)N[C@@H](CCCN=C(N)N)C(N)=O [VRKPPYLPRPRWPRRIYNR]

MIC [8]: 69.6 µM (≈ 149 µg/mL)
MIC [9]: 1.14 µM (≈ 2.45 µg/mL)
MIC [10]: 3.96 µM (≈ 8.48 µg/mL)
SMILES: CC(C)C[C@H](NC(=O)[C@H](CCCCN)NC(=O)[C@H](Cc1ccccc1)NC(=O)[C@H](CC(C)C)NC(=O)[C@H](CC(C)C)NC(=O)CNC(=O)[C@H](CCCCN)NC(=O)[C@H](CC(C)C)NC(=O)[C@H](CCCCN)NC(=O)[C@@H]1CCCN1C(=O)[C@H](CC(C)C)NC(=O)[C@H](CC(C)C)NC(=O)[C@H](CC(C)C)NC(=O)[C@H](CCCCN)NC(=O)[C@H](CC(C)C)NC(=O)[C@H](CC(C)C)NC(=O)[C@H](CCCCN)NC(=O)[C@@H](N)Cc1ccc(O)cc1)C(N)=O [YKLLKLLLPKLKGLLFKL]

MIC [11]: 58.2 µM (≈ 100 µg/mL)
MIC [6]: 116 µM (≈ 200 µg/mL)
SMILES: CSCC[C@H](NC(=O)[C@H](CCCN=C(N)N)NC(=O)[C@H](Cc1c[nH]c2ccccc12)NC(=O)[C@H](CCC(N)=O)NC(=O)[C@H](Cc1c[nH]c2ccccc12)NC(=O)[C@H](CCCN=C(N)N)NC(=O)[C@H](CCCN=C(N)N)NC(=O)[C@H](C)NC(=O)[C@H](CCCCN)NC(=O)[C@@H](N)Cc1ccccc1)C(=O)N[C@@H](CCCCN)C(=O)N[C@@H](CCCCN)C(=O)O [FKARRWQWRMKK]
